One assay concerns the target T1, EPHB2 (Homo sapiens, UniProt P29323).
T1 construct: either as full-length or enzymatically active fragments; purchased ProQinase GmbH (Freiburg, Germany)
T1 sequence (P29323 19-1055): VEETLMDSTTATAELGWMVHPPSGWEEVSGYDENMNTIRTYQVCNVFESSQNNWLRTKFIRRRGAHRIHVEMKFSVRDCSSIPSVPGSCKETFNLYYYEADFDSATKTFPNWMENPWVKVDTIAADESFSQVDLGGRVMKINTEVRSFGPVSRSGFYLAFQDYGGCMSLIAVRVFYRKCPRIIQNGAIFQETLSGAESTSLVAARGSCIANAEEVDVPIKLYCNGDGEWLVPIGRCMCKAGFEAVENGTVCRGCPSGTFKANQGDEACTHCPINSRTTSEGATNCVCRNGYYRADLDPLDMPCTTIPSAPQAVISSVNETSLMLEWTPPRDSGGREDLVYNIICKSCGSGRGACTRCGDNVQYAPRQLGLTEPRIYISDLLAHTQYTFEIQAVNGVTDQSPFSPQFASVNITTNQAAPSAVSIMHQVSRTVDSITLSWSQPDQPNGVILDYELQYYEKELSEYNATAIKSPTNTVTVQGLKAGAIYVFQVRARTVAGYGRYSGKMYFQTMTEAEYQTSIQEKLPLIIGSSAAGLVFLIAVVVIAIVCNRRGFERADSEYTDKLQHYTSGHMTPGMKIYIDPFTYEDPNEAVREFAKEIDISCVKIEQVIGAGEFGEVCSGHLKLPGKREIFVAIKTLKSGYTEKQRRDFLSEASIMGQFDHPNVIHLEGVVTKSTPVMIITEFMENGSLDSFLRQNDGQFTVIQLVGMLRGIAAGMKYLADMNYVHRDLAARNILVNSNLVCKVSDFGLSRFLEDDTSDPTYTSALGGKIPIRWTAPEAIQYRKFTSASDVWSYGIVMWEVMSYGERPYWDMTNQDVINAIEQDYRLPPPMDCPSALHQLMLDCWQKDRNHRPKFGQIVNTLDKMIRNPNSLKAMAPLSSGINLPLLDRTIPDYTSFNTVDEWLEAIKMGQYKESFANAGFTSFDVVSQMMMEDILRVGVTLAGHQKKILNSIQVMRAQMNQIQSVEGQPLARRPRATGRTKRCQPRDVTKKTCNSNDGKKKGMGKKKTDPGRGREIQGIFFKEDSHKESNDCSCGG
Nature of the assay: Radiometric protein kinase assay (33PanQuinase Activity Assay), EPHB2. In kind it is biochemical. Conditions: ATP 0.3 μM. On the procedure:
(§1) A proprietary radiometric protein kinase assay (33PanQuinase® Activity Assay) developed by ProQuinase GmbH (Freiburg, Germany) was used for measuring the kinase activity of selected protein kinases. All assays were performed in FlashPlates™ wells 96 Perkin Elmer (Boston, Mass., USA) in a reaction volume of 50 μl. The reaction mixture was obtained in 4 steps in the following order: • 1. 10 μl of a solution of non-radioactive ATP in water; • 2. 25 μl of assay buffer/[γ-^33P]-ATP mixture • 3. 5 μl of test sample in 10% DMSO • 4. 10 μl of enzyme/substrate mixture
(§2) All protein kinases provided by ProQinase were expressed in Sf9 insect cells or in E. coli as recombinant GST-fusion proteins or His-tagged proteins, either as full-length or enzymatically active fragments. […] Kinases from external vendors (CAR=Carna Biosciences Inc.; INV=Life Technologies (Invitrogen Corporation); MIL=Merck-Millipore (Millipore Corporation), were expressed, purified and quality-controlled by virtue of the vendors readings.
(§3) A stock solution of compound of formula (I) was diluted to 5×10-04M/100% DMSO. […] Incorporation of 33Pi (counting of “cpm”) was determined with a microplate scintillation counter (Microbeta, Wallac). […]
(§4) Based on each 10 corresponding residual activities, IC50 values were calculated using Prism 5.04 for Windows (Graphpad, San Diego, Calif.). […]

Another assay concerns the target T2, TRK-B (Homo sapiens, UniProt Q16620).
T2 construct: either as full-length or enzymatically active fragments; purchased ProQinase GmbH (Freiburg, Germany)
Briefly: Radiometric protein kinase assay (33PanQuinase Activity Assay), TRK-B. In kind it is biochemical. Conditions: ATP 0.3 μM. On the procedure: as §1, §2, §3, §4

One may read the IC50 as the concentration at which inhibition is half-maximal.

T2 sequence (Q16620 32-822): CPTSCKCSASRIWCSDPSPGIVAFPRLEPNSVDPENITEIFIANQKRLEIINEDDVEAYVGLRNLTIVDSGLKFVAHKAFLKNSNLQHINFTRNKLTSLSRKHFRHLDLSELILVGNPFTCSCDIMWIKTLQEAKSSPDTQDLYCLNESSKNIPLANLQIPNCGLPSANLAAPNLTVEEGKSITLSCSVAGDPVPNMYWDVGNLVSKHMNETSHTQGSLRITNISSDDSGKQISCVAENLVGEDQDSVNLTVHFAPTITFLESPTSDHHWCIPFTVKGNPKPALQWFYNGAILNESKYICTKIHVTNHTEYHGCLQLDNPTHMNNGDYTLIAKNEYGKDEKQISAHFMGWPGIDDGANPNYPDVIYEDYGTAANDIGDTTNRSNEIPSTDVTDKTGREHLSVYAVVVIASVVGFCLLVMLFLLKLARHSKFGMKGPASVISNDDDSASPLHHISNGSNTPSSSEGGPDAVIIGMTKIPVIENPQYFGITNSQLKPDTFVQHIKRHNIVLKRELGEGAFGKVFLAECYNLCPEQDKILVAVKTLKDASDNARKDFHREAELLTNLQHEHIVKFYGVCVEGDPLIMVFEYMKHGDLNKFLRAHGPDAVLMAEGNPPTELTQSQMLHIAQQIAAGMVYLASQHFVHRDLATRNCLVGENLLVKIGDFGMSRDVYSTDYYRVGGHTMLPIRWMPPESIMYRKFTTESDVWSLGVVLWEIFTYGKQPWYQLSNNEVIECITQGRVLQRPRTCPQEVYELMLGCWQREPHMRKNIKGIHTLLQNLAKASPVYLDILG

For `CN1CCN(c2ccc(C(=O)Nc3n[nH]c4cc(-c5ccc(O)cc5)c(Cc5cc(F)cc(F)c5)cc34)c(NC3CCOCC3)c2)CC1` [Example 3, N-[5-[(3,5-difluorophenyl)methyl]-6-(4-hydroxyphenyl)-1H-indazol-3-yl]-4-(4-methylpiperazin-1-yl)-2-(tetrahydropyran-4-ylamino)benzamide], the IC50 against EPHB2 amounted to 90 nM; against TRK-B, 88 nM.

Values taken from patent publication US10336707B2, “Heterocyclic derivatives modulating activity of certain protein kinases” (EUDENDRON S.R.L., priority 2014, dated 2019).
